The text below walks through data of ChEMBL document CHEMBL2069217, “Self-organizing molecular field analysis of NSAIDs: assessment of pharmacokinetic and physicochemical properties using 3D-QSPkR approach” (Eur J Med Chem, 2012).

The data set in a line: Dissociation constant, pKa of the compound. The data set is classed as physicochemical.

A word on the pKa: it is the negative logarithm of the acid dissociation constant. A higher pKa goes with a group that holds its proton tightly.

In the case of `CC1=C(CC(=O)O)c2cc(F)ccc2/C1=C\c1ccc([S+](C)[O-])cc1` (stereo not drawn), the pKa was 4.5.

With `CC(C(=O)O)c1ccc2oc(-c3ccc(Cl)cc3)nc2c1` (stereo not drawn) [BENOXAPROFEN], the pKa was determined as 6.9.

For the compound `CC(C(=O)O)c1ccc2c(c1)[nH]c1ccc(Cl)cc12` (stereo not drawn) [CARPROFEN], the pKa worked out at 4.7.

In turn, `Cc1cccc(Nc2ccccc2C(=O)O)c1C` [MEFENAMIC ACID] showed a pKa of 4.2.

`O=C(O)CCc1nc(-c2ccccc2)c(-c2ccccc2)o1` [OXAPROZIN] displayed a pKa of 4.3.

For the compound `CCCCC1C(=O)N(c2ccccc2)N(c2ccc(O)cc2)C1=O` (stereo not drawn) [OXYPHENBUTAZONE ANHYDROUS], the pKa stood at 4.7.

`CC(C(=O)O)c1ccc(C(=O)c2cccs2)cc1` (stereo not drawn) [SUPROFEN] displayed a pKa of 4.

On to `Cc1cc(CC(=O)O)n(C)c1C(=O)c1ccc(Cl)cc1` [ZOMEPIRAC], for which the pKa came to 4.7.
